Assay results as given in patent publication US20260234188A1, “CHEMOKINE-BINDING PEPTIDES” (Oxford University Innovation Limited, priority 2022, published 2026).
Entries after “also recorded” stand apart in the source; their conditions may differ.

system: panel of up to 42 human chemokines; assay: Phage-display next generation sequencing screen of overlapping hexadecapeptide libraries, chemokines displayed on streptavidin beads; assay type: binding; details: log2E greater than 5, chemokines named by first part of UniProt Entry Name
Text: FIG. 1. Exemplar results from phage display screens. Phage-display libraries were constructed and analysed as described in (McLaughlin, 2013) (Tonikian, 2007). […] FIG. 1A, CC chemokines against evasin A library. FIG. 1B, CXC chemokines against the evasin B library. FIG. 1C, CXC and CX3C chemokines against the viral chemokine binding protein library. FIG. 1D, CXC chemokines against the chemokine library. […] Identified hexadecapeptides were mapped to the position in the originating protein (x-axis) and to fold enrichment (log 2 E, left y-axis). Regions of interest (ROI) were defined where the cumulative residue log 2 E, (clog 2 E:r, right y-axis) exceeds the 95% upper confidence interval of the median clog 2 E:r for the entire protein (indicated as a horizontal dotted line in each panel). Proteins are referred to by their UniProt ID.
Hexadecapeptides were identified using a phage-display next generation sequencing approach (McLaughlin, 2013). Libraries containing a total of 55662 overlapping peptides (from the tick chemokine binding proteins shown in Tables 3A and 3B, the viral chemokine binding proteins shown in Table 3C, the human chemokines shown in Table 3 E, and the human/viral chemokine receptors and other chemokine-binding proteins shown in Table 3D) were first constructed, and then screened against a panel of up to 42 human chemokines, as shown in Table 3F.

Substance | Chemokines Bound
CR3373 (DLTNWKLLAEIYEYLF) | CCL2, CCL22, and CCL28, CXL10, and CXL11, SDF1, and CXL13, CXL14, and IL8
CR5519 (FLGLMCSVWTHLGMAL) | CCL1, CCL18,; also recorded: CCL2, CCL22,
CR25802 (VSILVWLLAFSVSLPD) | CCL15, CCL18, and CCL19, CCL20, and CCL28, CXL10, and IL8
CR26001 (VTLTSLAVWGLSLLFA) | CCL11, CCL2,; also recorded: CCL28, SDF1
CR24556 (VFGTVFLSIFYSVIFA) | CCL1, CCL17,; also recorded: CCL18, CCL19,; also recorded: CCL2, CCL20,; also recorded: CCL22, CCL25,; also recorded: CCL28, X3CL1,; also recorded: CXL10, CXL11,; also recorded: SDF1, CXL13,; also recorded: CXL14, IL8
CR24989 (VITFCLYVGQFLAYVR) | CCL17, CCL18,; also recorded: CCL19, CCL20,; also recorded: CCL25, X3CL1,; also recorded: CXL10, SDF1,; also recorded: CXL14
CR25165 (VLGLLLNSLALWVFAA) | CCL19, CCL2,; also recorded: CCL20, CCL28
CR4463 (ESLFAALVTLITSLFG) | CCL1, CCL17,; also recorded: CCL18, CCL2,; also recorded: X3CL1, CXL10,; also recorded: CXL11, IL8
CR5171 (FGVVTSVITWLVAVFA) | CCL11, CCL17, and CCL18, CCL2, and CCL20, CCL22, and CCL25, CCL28, and X3CL1, CXL10, and CXL11, SDF1, and CXL13, CXL14, and IL8
CR27428 (YLKAFLAAVLGWHLAP) | CCL17, CCL18,; also recorded: CCL2, CCL20,; also recorded: X3CL1, CXL10,; also recorded: CXL11, SDF1,; also recorded: CXL14
CR24707 (VGALGNSLVILVYWYC) | CCL17, CCL18,; also recorded: CCL19, CCL20
CR5172 (FGVVTSVITWVVAVFA) | CCL1, CCL18, and CXL10, SDF1, and IL8
CR28001 (YVSFISTTILFLIFSV) | CCL1, CCL15,; also recorded: CCL17, CCL19,; also recorded: CCL20, CCL22,; also recorded: CCL25, CCL28,; also recorded: X3CL1, CXL10,; also recorded: CXL11, CXL14
CR23240 (TLPFWGISVAWHWVFG) | CCL17, CCL18,; also recorded: CCL20, X3CL1,; also recorded: CXL11
CR26513 (WGAAPVIMMTWFYAFF) | CCL11, CCL17, and CCL18, CCL19, and CCL20, CCL22, and CCL25, CCL28, and X3CL1, CXL10, and CXL11, CXL13, and IL8
CR5511 (FLGILGNGLVIIIATF) | CCL20, CCL22, and SDF1
CR3302 (DLFIGIKIVYSFLWGI) | CCL1, CCL17,; also recorded: CCL18, CCL20,; also recorded: CCL22, CCL28,; also recorded: CXL10, CXL11,; also recorded: CXL13, IL8
CR2340 (AYDLFIGIKIVYCFLW) | CCL15, CCL17, and CCL18, CCL19, and CCL20, CCL22, and CCL25, CCL28, and X3CL1, CXL10, and CXL11, SDF1, and CXL13, CXL14, and IL8
CR26041 (VTSVITWLVAVFASVP) | CCL2, X3CL1,; also recorded: CXL11, IL8

same assay, conditions: log2E greater than 5, chemokines named by first part of UniProt Entry Name, peptides binding complement C5a (control) excluded

Substance | Chemokines Bound
CR9111 (IIFSYVVVFLVAWLPY) | CCL20, CCL22,; also recorded: CCL28, CXL11,; also recorded: CXL13
CR6611 (FYVITLFASDFVLMWC) | CCL22, CCL25,; also recorded: X3CL1, CXL13
VP4048 (IILLVYVYATFATKGI) | CCL1, CCL5,; also recorded: CCL8, X3CL1,; also recorded: CXL10, CXL11,; also recorded: CXL13, IL8
CR6624 (FYYLYVYLDIFSVVAV) | CCL15, CCL17, and CCL18, CCL19, and CCL20, CCL22, and CCL25, CCL28, and X3CL1, CXL10, and CXL11, SDF1, and CXL13, CXL14, and IL8
CR9087 (IIALVVWGLSVIISSS) | CCL1, CCL17,; also recorded: CCL18, CCL19,; also recorded: CCL2, CCL20,; also recorded: CCL22, CCL25,; also recorded: CCL28, X3CL1,; also recorded: CXL10, CXL11,; also recorded: SDF1, CXL13,; also recorded: CXL14, IL8
CR8496 (HWGWVLGDFLCKLLNM) | CCL11, CCL17, and CCL18, CCL19, and CCL20, CCL22, and CCL25, CCL28, and X3CL1, CXL10, and CXL11, SDF1, and CXL13, CXL14, and IL8
CR5519 (FLGLMCSVWTHLGMAL) | CCL28, X3CL1,; also recorded: CXL10, CXL11,; also recorded: SDF1, CXL13,; also recorded: CXL14, IL8
CR8677 (IAYSLISVFGLLGNIL) | CCL2, CXL10,; also recorded: CXL13
EB2053 (KSDVYELFTVEYCGTN) | CXL10, CXL11,; also recorded: CXL13
CR6623 (FYYIGFYSSMFFITLM) | CCL1, CCL17,; also recorded: CCL18, CCL19,; also recorded: CCL20, CCL22,; also recorded: CCL28, X3CL1,; also recorded: CXL10, CXL11,; also recorded: SDF1, CXL14
CR8655 (IAVFGLLGNILVVITF) | CCL17, CCL22,; also recorded: CCL25, IL8
CR8437 (HTVLLSWKVLLTMVWG) | CCL1, CCL18,; also recorded: CCL19, CCL20,; also recorded: CXL13
VP6154 (MKSVLYLYILFLSCII) | CCL1, X3CL1, and CXL10, CXL11, and IL8
CR9948 (ISVAWHWVFGSFLSKM) | CCL17, CCL18, and CCL20, CCL22, and CCL25, X3CL1, and CXL11, CXL14, and IL8
CR6068 (FSFFYVIFSKALHDVT) | CCL1, CCL18, and CCL22, CCL28, and SDF1
CR5598 (FLLSLGIILFSYVEIL) | CCL18, CCL19, and CXL10, CXL11, and SDF1, CXL14, and IL8
EB1728 (HEDGKKVGLCLSTEYT) | CXL10, SDF1,; also recorded: CXL14
CR9432 (ILMFLSDFSFIFSSWA) | CCL1, CXL10,; also recorded: CXL11, SDF1,; also recorded: CXL14, IL8
EB3085 (SGLCLSTTYIDFSEYG) | CXL10, CXL11,; also recorded: SDF1, CXL14
CR8427 (HTLRMTIFCLVLPLLV) | CCL28, CXL10, and CXL11, SDF1, and IL8
CR5776 (FMIFCYTFIVKTLVQA) | CCL1, CCL17,; also recorded: CCL19, CCL20,; also recorded: SDF1, CXL13
CR8251 (HNKTLSFISLLILSFL) | CCL2, X3CL1, and IL8
CR7860 (GWVLGDFLCKLLNMIF) | CCL1, CCL17, and CCL18, CCL19, and CCL2, CCL20, and CCL22, CCL28, and CCL8, CXL10, and SDF1, CXL13, and IL8
VP4071 (IKAESKGSELILLDPP) | CCL17, CCL20,; also recorded: CCL22
CR6558 (FYISLFAGVSFLINLS) | CCL17, CCL18,; also recorded: CCL19, CCL20,; also recorded: CCL22, CCL25,; also recorded: CCL28, X3CL1,; also recorded: CXL10, CXL11,; also recorded: SDF1, CXL13,; also recorded: CXL14, IL8
EB963 (ENDKKVGLCLSTEYTD) | CXL10, CXL11, and SDF1
CR8126 (HIGYFGGIFFIILLTI) | CCL18, CCL22, and CCL25, CXL11, and IL8
CR5669 (FLSIFYSVIFAIGLVG) | CCL17, CCL18,; also recorded: CCL19, CCL20,; also recorded: CCL28, X3CL1,; also recorded: CXL10, CXL14
VP6307 (MYSLVFVILMCIPFSF) | X3CL1, CXL11,; also recorded: CXL13, IL8
VP1485 (DLAGLDSLTSPVYVMA) | CCL20, X3CL1, and SDF1

same assay, conditions: log2E greater than 5, chemokines named by first part of UniProt entry name, C5a (control) binders excluded

Substance | Chemokines Bound
CR15153 (LYSLLFLLGLLGNGAV) | CCL18, CCL22,; also recorded: CCL25
CR12439 (LGIMLFAYSMIIRTLQ) | CCL17, CCL18,; also recorded: CCL20, CCL25
CR21284 (SMVIWVLAFFLSSPSL) | CCL1, CCL18,; also recorded: CCL20
CR17126 (PCGIITSVLAWVTAIL) | CCL1, CCL20,; also recorded: CCL22, CCL28,; also recorded: X3CL1, CXL10,; also recorded: CXL11, SDF1,; also recorded: CXL14, IL8
CR20762 (SIYLLNLAISDLLFLF) | CCL22, CCL28,; also recorded: CXL10, CXL11,; also recorded: SDF1, CXL13,; also recorded: CXL14, IL8
CR20939 (SLCLSISLLAEVLMFL) | CCL1, CCL18,; also recorded: CCL19, X3CL1
CR18955 (RFRQYLKAFLAAVLGW) | CCL17, CCL18,; also recorded: CXL14
CR12037 (LENMLFASFYLLDFIL) | CCL22, CXL10,; also recorded: CXL11, SDF1,; also recorded: CXL13, IL8
CR21168 (SLVFIFGFVGNMLVIL) | CCL1, CCL22,; also recorded: CCL28, CXL10,; also recorded: CXL13, CXL14
CR14548 (LTGFLFYLNMYASIYF) | CCL18, CCL19, and CCL22, CCL28, and CXL10, CXL11, and SDF1, CXL13, and IL8
CR12869 (LIWVISLLVSLPQIIY) | CCL17, CCL18, and X3CL1, CXL14, and IL8
CR15915 (MVFSFFYVIFAKALHD) | CCL1, CCL18,; also recorded: CCL19, CCL20
CR11720 (LATFKILICIVWGVMP) | CCL17, CCL18,; also recorded: CCL19, CCL20,; also recorded: CCL25, CXL10,; also recorded: CXL14
CK3750 (PEWVNTPSTCCLKYYE) | CCL18, CCL19,; also recorded: CCL22, X3CL1
CR19824 (RVTLTALAVWGLALLF) | CCL2, CCL22,; also recorded: CCL25, CXL10,; also recorded: CXL11, SDF1,; also recorded: CXL14, IL8
CR17781 (PSWIISFSVWMAAILL) | CCL17, CCL18, and CCL19, CCL2, and CCL20, CCL22, and CCL25, CCL28, and X3CL1, CXL10, and CXL11, SDF1, and CXL13, CXL14, and IL8
CR15079 (LYAHLASAFLWVVVAV) | CCL17, CCL18,; also recorded: CCL20, CCL22,; also recorded: CCL28, X3CL1,; also recorded: CXL10, CXL11,; also recorded: SDF1, CXL13,; also recorded: CXL14, IL8
CR13966 (LPTMVFSFFYVIFCKA) | CCL20, CCL25,; also recorded: SDF1, CXL14
CR20068 (SAVLTLKVILGFFLPF) | CCL17, CCL18,; also recorded: CCL20, CCL25,; also recorded: CCL28, CXL11
CR1802 (ASMILESLFAALVTLI) | CCL17, CCL18,; also recorded: CCL2, CCL20,; also recorded: CCL22, CCL25,; also recorded: CCL28, CXL10
CK3115 (LLESYFETNSECSKPG) | CCL19, CCL22,; also recorded: X3CL1, CXL14
CK1408 (FSRCCFSFAEQEIPLR) | CCL1, CCL2,; also recorded: CCL8, CXL14
